Reference: patent publication US20100286183A1, “SPIROHYDANTOIN COMPOUNDS AND METHODS FOR THE MODULATION OF CHEMOKINE RECEPTOR ACTIVITY” (priority 2005, published 2010)
Counter-ions that a name gives are not always drawn. Like-named read-outs stand apart in the source and are kept apart here.

System: HIV-1Ba-L
Assay: HIV-1 Replication in PM1 Cell Culture Assay
Format: cell-based
Conditions: read-out: IC50 μM HIV-1 PM1
Description: C:HIV-1 Replication in PM1 Cell Culture Assay
Evaluation of the in vitro anti-HIV-1Ba-L activity in PM1 cell line: PM1 cell line which is a continuous CD4+ T-cell clone originally derived from a neoplastic T-cell line is used. PM1 is characterized by a unique susceptibility to a wide range of HIV-1 isolates, including primary and biologically pure macrophage-tropic isolates. Drugs are serially diluted (9 concentrations in duplicates) and added to wells of a flat bottom 96-well plate. PM1 cells are infected with HIV-1Ba-L at a multiplicity of infection of 0.5 for a period of 3 hours. Unbound viruses are removed by washing the cells two times through centrifugation followed by seeding the cells into a 96-well plate in the presence of the serially diluted test compounds with final concentrations ranging from 0.00256 to 5000 ηM. Thereafter, plates were incubated for a period of 6 days at 37° C. in a CO2 incubator. Thereafter, culture supernatants are collected at day 6 and stored at −80° C. for viral quantification. The amount of virus present in cell culture supernatants is quantified using a reverse transcriptase assay. The concentration causing 50% inhibition of viral replication (IC50) is calculated using Graph Pad Prism software.

[1] = Human immunodeficiency virus 1, 144 h, PM1 cell line infected with HIV-1Ba-L, 6 days, reverse transcriptase assay of supernatant
[2] = Human immunodeficiency virus 1, PM1, 144 h

| IC50 [1] [µM] | Structure (SMILES) | IC50 [2] [µM] |
| --- | --- | --- |
| < 1 | CC(C)(C)OC(=O)N1C[C@H](CN2CCC3(CC2)NC(=O)N(Cc2ccc(Br)cc2)C3=O)[C@@H](c2ccccc2)C1 [Compound 1, (3S,4S)-3-[3-(4-Bromo-benzyl)-2,4-dioxo-1,3,8-triaza-spiro[4.5]dec-8-ylmethyl]-4-phenyl-pyrrolidine-1-carboxylic acid tert-butyl ester] | – |
| < 1 | COc1ccc(CN2C(=O)NC3(CCN(C[C@H]4CN(C(=O)OC(C)(C)C)C[C@@H]4c4ccccc4)CC3)C2=O)cc1 [Compound 2, (3S,4S)-3-[3-(4-Methoxy-benzyl)-2,4-dioxo-1,3,8-triaza-spiro[4.5]dec-8-ylmethyl]-4-phenyl-pyrrolidine-1-carboxylic acid tert-butyl ester] | – |
| < 1 | CC(C)(C)OC(=O)N1C[C@H](CN2CCC3(CC2)NC(=O)N(Cc2ccc(S(C)(=O)=O)cc2)C3=O)[C@@H](c2ccccc2)C1 [Compound 3, (3S,4S)-3-[3-(4-Methanesulfonyl-benzyl)-2,4-dioxo-1,3,8-triaza-spiro[4.5]dec-8-ylmethyl]-4-phenyl-pyrrolidine-1-carboxylic acid tert-butyl ester] | – |
| – | CCC(=O)N1C[C@H](CN2CCC3(CC2)NC(=O)N(Cc2ccc(S(C)(=O)=O)cc2)C3=O)[C@@H](c2ccccc2)C1 [Compound 15, 3-(4-Methanesulfonyl-benzyl)-8-((3S,4S)-4-phenyl-1-propionyl-pyrrolidin-3-ylmethyl)-1,3,8-triaza-spiro[4.5]decane-2,4-dione hydrochloride] | < 1 |
| – | CC1(C(=O)N2C[C@H](CN3CCC4(CC3)NC(=O)N(Cc3ccc(S(C)(=O)=O)cc3)C4=O)[C@@H](c3ccccc3)C2)CC1 [Compound 16, 3-(4-Methanesulfonyl-benzyl)-8-[(3S,4S)-1-(1-methyl-cyclopropanecarbonyl)-4-phenyl-pyrrolidin-3-ylmethyl]-1,3,8-triaza-spiro[4.5]decane-2,4-dione hydrochloride] | < 1 |
| – | CS(=O)(=O)c1ccc(CN2C(=O)NC3(CCN(C[C@H]4CN(C(=O)CC5CC5)C[C@@H]4c4ccccc4)CC3)C2=O)cc1 [Compound 17, 8-[(3S,4S)-1-(2-Cyclopropyl-acetyl)-4-phenyl-pyrrolidin-3-ylmethyl]-3-(4-methanesulfonyl-benzyl)-1,3,8-triaza-spiro[4.5]decane-2,4-dione hydrochloride] | < 1 |
| – | CS(=O)(=O)c1ccc(CN2C(=O)NC3(CCN(C[C@H]4CN(C(=O)C5CCCC5)C[C@@H]4c4ccccc4)CC3)C2=O)cc1 [Compound 18, 8-((3S,4S)-1-Cyclopentanecarbonyl-4-phenyl-pyrrolidin-3-ylmethyl)-3-(4-methanesulfonyl-benzyl)-1,3,8-triaza-spiro[4.5]decane-2,4-dione hydrochloride] | < 1 |
| – | CS(=O)(=O)c1ccc(CN2C(=O)NC3(CCN(C[C@H]4CN(C(=O)C5CCC(F)(F)CC5)C[C@@H]4c4ccccc4)CC3)C2=O)cc1 [Compound 19, 8-[(3S,4S)-1-(4,4-Difluoro-cyclohexanecarbonyl)-4-phenyl-pyrrolidin-3-ylmethyl]-3-(4-methanesulfonyl-benzyl)-1,3,8-triaza-spiro[4.5]decane-2,4-dione hydrochloride] | < 1 |
| – | CS(=O)(=O)c1ccc(CN2C(=O)NC3(CCN(C[C@H]4CN(C(=O)c5ccccc5F)C[C@@H]4c4ccccc4)CC3)C2=O)cc1 [Compound 20, 8-[(3S,4S)-1-(2-Fluoro-benzoyl)-4-phenyl-pyrrolidin-3-ylmethyl]-3-(4-methanesulfonyl-benzyl)-1,3,8-triaza-spiro[4.5]decane-2,4-dione hydrochloride] | < 1 |
| – | CS(=O)(=O)c1ccc(CN2C(=O)NC3(CCN(C[C@H]4CN(C(=O)c5ccccc5Cl)C[C@@H]4c4ccccc4)CC3)C2=O)cc1 [Compound 21, 8-[(3S,4S)-1-(2-Chloro-benzoyl)-4-phenyl-pyrrolidin-3-ylmethyl]-3-(4-methanesulfonyl-benzyl)-1,3,8-triaza-spiro[4.5]decane-2,4-dione hydrochloride] | < 1 |
| – | CN(C)S(=O)(=O)c1ccc(CN2C(=O)NC3(CCN(C[C@H]4CN(C(=O)C5CCC(F)(F)CC5)C[C@@H]4c4ccccc4)CC3)C2=O)cc1 [Compound 22, 4-{8-[(3S,4S)-1-(4,4-Difluoro-cyclohexanecarbonyl)-4-phenyl-pyrrolidin-3-ylmethyl]-2,4-dioxo-1,3,8-triaza-spiro[4.5]dec-3-ylmethyl}-N,N-dimethyl-benzenesulfonamide hydrochloride] | < 1 |
| – | CC(C)(C)CC(=O)N1C[C@H](CN2CCC3(CC2)NC(=O)N(Cc2ccc(S(C)(=O)=O)cc2)C3=O)[C@@H](c2ccccc2)C1 [Compound 23, 8-[(3S,4S)-1-(3,3-Dimethyl-butyryl)-4-phenyl-pyrrolidin-3-ylmethyl]-3-(4-methanesulfonyl-benzyl)-1,3,8-triaza-spiro[4.5]decane-2,4-dione hydrochloride] | < 1 |
| – | CCCN1C(=O)N(CC)C2(CCN(C[C@H]3CN(C(=O)CC(C)(C)C)C[C@@H]3c3ccccc3)CC2)C1=O [Compound 24, 8-[(3S,4S)-1-(3,3-Dimethyl-butyryl)-4-phenyl-pyrrolidin-3-ylmethyl]-1-ethyl-3-propyl-1,3,8-triaza-spiro[4.5]decane-2,4-dione hydrochloride] | < 1 |
